Source: US20180362485A1, “N-HYDROXYFORMAMIDE COMPOUNDS AND COMPOSITIONS COMPRISING THEM FOR USE AS BMP l, TLL1 AND/OR TLL2 INHIBITORS” (GlaxoSmithKline Intellectual Property (No. 2) Limited, priority 2015, published 2018)

Assays:
human TLL2 = target: T1, human TLL2 (Homo sapiens, UniProt Q9Y6L7); test: Enzyme inhibition assay for human TLL2; assay type: biochemical; details: 18 nM TLL2, 5 μM promyostatin peptide substrate; read-out: pIC50, TLL2 enzyme inhibition assay (converted)
T1 construct: amino acids 26-1015 of human TLL2 (NM_012465); made in house
T1 sequence (Q9Y6L7 150-1015): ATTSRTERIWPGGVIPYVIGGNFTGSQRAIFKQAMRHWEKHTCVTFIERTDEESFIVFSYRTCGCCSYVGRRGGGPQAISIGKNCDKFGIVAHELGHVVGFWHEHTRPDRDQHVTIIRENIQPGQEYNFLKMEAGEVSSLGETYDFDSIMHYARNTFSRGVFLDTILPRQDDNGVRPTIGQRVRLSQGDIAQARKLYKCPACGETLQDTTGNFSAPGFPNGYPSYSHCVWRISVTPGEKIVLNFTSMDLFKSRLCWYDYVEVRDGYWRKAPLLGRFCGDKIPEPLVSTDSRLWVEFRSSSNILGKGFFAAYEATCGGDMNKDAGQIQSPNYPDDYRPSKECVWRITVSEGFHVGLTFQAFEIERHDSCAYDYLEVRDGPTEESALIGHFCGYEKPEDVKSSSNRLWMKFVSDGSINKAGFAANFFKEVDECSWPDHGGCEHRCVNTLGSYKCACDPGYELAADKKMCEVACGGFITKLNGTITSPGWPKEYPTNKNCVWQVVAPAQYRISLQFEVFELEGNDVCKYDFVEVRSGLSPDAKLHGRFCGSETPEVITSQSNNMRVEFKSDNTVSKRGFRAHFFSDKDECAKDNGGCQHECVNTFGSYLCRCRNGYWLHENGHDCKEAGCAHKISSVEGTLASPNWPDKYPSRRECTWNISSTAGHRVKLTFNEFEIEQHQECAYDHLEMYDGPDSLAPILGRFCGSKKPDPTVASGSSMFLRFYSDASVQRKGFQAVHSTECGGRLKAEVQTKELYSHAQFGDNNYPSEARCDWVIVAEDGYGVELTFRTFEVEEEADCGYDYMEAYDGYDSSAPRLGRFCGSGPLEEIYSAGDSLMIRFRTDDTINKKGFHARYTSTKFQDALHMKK
Source text: Buffer components are purchased from Sigma-Aldrich (St. Louis, Mo.) or an equivalent supplier. The promyostatin peptide substrate is custom synthesized by American Peptide Company (Sunnyvale, Calif.) using the myostatin protein sequence (Uniprot accession number 014793) surrounding the cleavage site reviewed in Hopkins, D. R., et al., 2007 Matrix Biology, 26, 508-523. The procollagen peptide substrate used in the high enzyme BMP1 cleavage assay is custom synthesized by 21st Century Biochemicals (Marlboro, Mass.) using the procollagen Iα protein sequence (Uniprot accession number P02452) surrounding the cleavage site reviewed in Hopkins, D. R., et al., 2007 Matrix Biology, 26, 508-523.
The DNA sequence encoding amino acids 26-1015 of human TLL2 (NM_012465) is PCR amplified from DNA template with the human RAGE signal sequence at the N-terminus and Avi-6×His epitope tags at the C-terminus ([…]). […]
Inhibition of human TLL1 and TLL2 recombinant enzymes is measured in 10 ul endpoint assays in 384-well format using the same promyostatin peptide substrate employed in the above Enzyme Inhibition Assay for human BMP1. […] TLL1 and TLL2 reactions are quenched with 5 μl of 0.5 M EDTA and plates are read on a ViewLux (Perkin Elmer) multilabel plate reader using a 480 nm excitation filter and 540 nm emission filter. […]

[1] = system: deposition of mature collagen; test: Cell-based inhibition assay of mature collagen deposition (immunostaining); details: Cardiac fibroblast; human cardiac fibroblasts, immunostaining of mature collagen I; read-out: pIC50, mature collagen cellular inhibition assay (converted)
Experimental: An adaptation of the collagen deposition assay described by Chen, C. Z. C., et al., British Journal of Pharmacology, 2009, 158, 1196-1209 is used to examine effect of compounds on procollagen I processing and collagen deposition. In the adapted assay, human cardiac fibroblasts are utilized. Processing of procollagen I is determined by a PICP ELISA assay and deposition of mature collagen is determined by immunostaining.
Human cardiac fibroblasts are cultured and maintained until passage 6 in FGM-3 media (Lonza, #CC-3132) in a 37° C. humidified incubator with 5% CO2. They are then seeded in 96-well black wall, clear bottom plates at 10,000 to 15,000 cells per well in eagle's minimum essential media (EMEM, ATCC #30-2003) containing 10% fetal bovine serum (FBS, Life Technologies #10082147), 1% Glutamax (Life Technologies #35050061) and 1% Penicillin and Streptomycin (Life Technologies #15070063). These cultures are placed in 37° C. incubator. The next day, media is removed by aspiration and cells are rinsed with phosphate buffered saline. Crowding media (also called ficoll media) is prepared by adding 112.5 mg/ml of ficoll70 and 75 mg/ml ficoll400 (GE healthcare #17-0310-10 and 17-0300-10, respectively), 100 μM ascorbic acid, 1% Glutamax and 1% Penicillin and Streptomycin to EMEM media. Test compounds (dissolved in DMSO) are diluted into crowding media and then added to the cells. Final concentration of DMSO in crowding media is less than 0.3%. Cells are treated for 24 to 48 hr in a 37° C. incubator. At the end of the treatment period, cell media are collected. The level of PICP in the media is determined by a PICP ELISA assay (Quidel #8003) following the manufacturer's protocol. Potencies of test compounds are calculated by fitting PICP levels, relative to untreated controls, to log (inhibitor) vs. response equation using Graphpad Prism software 5.0 and expressed as pIC50.
For some compounds, deposition of mature collagen is measured by immunostaining in addition to PICP levels. At the end of the treatment period, cells on culture plate are fixed with 100% methanol (prechilled to −20° C.) for 10 min. Then the cells are immunostained with mouse anti-mature collagen I antibody (1:500 dilution, Sigma#C2456), anti-mouse secondary antibody Alexa647 (1:500 dilution, Invitrogen#A21236) and Hoechst (for nuclei, 2 μg/ml, Invitrogen#H3596). Fluorescent image acquisition is done using the Operetta High Content Imaging system (Perkin Elmer). For each image field, the intensity of mature collagen staining is normalized with the number of nuclei. Normalized collagen levels are used to calculate the potency of test compounds with Graphpad Prism software, as described above.

Compound: CCCCC[C@@H](C(=O)NCNC(=O)c1ccc(-c2ccccc2)o1)[C@@H](CC)N(O)C=O [WO2015/104684 Example 24, N—(((R)-2-((R)-1-(N-hydroxyformamido)propyl)heptanamido)methyl)-5-phenylfuran-2-carboxamide]
- IC50 (human TLL2): < 794 nM
- IC50 [1]: < 1000 nM
